{
  "source": "patent US20090035345A1",
  "about": "“Nuclear Receptors Agonists for Treatment of Atherosclerosis and/or Related Cardiovascular Disease” (ACADEMISCH MEDISCH CENTRUM, BUREAU, priority 2005, published 2009)",
  "key": {"[1]": {"test_system": "saphenous vein smooth muscle cells", "assay": "Cyclic stretch-induced DNA synthesis ([3H]-thymidine incorporation) in venous SMCs", "format": "cell-based, human", "description": "To study stretch-induced responses, smooth muscle cells were seeded in 6-well plates containing collagen Icoated flexible membranes (BioFlex® culture plates, Dunn Labortechnik GmbH, Asbach, Germany) and were stretched in the Flexercell FX3000 apparatus (Dunn Labortechnik) for 1, 2, 4, 6, or 24 h at 10% stretch at 0.5 Hz or served as control (without stretch). Silicone-based lubricant was applied to prevent friction between the membrane and loading post.\nSmooth muscle cells were seeded in 6-well stretch plates and when wells were confluent, smooth muscle cells were made quiescent for 16 h in medium containing 0.5% (v/v) FBS.\nThe plates were transferred into the Loading Station™ and stretched for 24 h. Control plates, without stretch, were cultured under identical conditions. Thereafter, cells were labeled for 4 h with 0.5 microCi/mL [methyl-^3H]-thymidine (Amersham Biosciences).\nIncorporated radioactivity was precipitated for 30 min at 4° C. with 10% (wt/v) trichloroacetic acid, washed twice with 5% (wt/v) trichloroacetic acid and dissolved in 0.5N NaOH. [^3H]-thymidine was measured by liquid scintillation counting.\nWhen cells were infected with mock- or TR3-containing adenovirus (3×10^8 plaque-forming units) for 2 h, the cells were allowed to recover for 24 h in complete medium before they were made quiescent. Agonist treatment (6-MP) was initiated 1 h prior to stretch with 0, 1, 10, 25 microM C-DIM (stock at 40 mM in DMSO).\nThe following small interfering RNA (siRNA) sequences were used: TR3 siRNA, 5′-CAG UCC AGC CAU GCU CCU C dTdT-3′, and mutated control siRNA, 5′-CAG ACG AGC CUU GCU CGU C dTdT-3′ (Ambion Inc., UK). Per Flexerplate-well 1 μg of siRNA was transfected into 5×10^5 SMCs using Nucleofector reagent for SMCs (Amaxa GmbH, Cologne, Germany) as per the manufacturer's recommendations and subsequently the cells were placed in the stretch plates and were treated as described above."}, "Nur77": {"biological_target": "T1, Nur77 (Homo sapiens, UniProt P22736)", "T1 construct": "expressed in transfected cells; host or cells: cultured human smooth muscle cells (SMCs), lentivirally transduced", "T1 sequence (P22736 whole entry)": "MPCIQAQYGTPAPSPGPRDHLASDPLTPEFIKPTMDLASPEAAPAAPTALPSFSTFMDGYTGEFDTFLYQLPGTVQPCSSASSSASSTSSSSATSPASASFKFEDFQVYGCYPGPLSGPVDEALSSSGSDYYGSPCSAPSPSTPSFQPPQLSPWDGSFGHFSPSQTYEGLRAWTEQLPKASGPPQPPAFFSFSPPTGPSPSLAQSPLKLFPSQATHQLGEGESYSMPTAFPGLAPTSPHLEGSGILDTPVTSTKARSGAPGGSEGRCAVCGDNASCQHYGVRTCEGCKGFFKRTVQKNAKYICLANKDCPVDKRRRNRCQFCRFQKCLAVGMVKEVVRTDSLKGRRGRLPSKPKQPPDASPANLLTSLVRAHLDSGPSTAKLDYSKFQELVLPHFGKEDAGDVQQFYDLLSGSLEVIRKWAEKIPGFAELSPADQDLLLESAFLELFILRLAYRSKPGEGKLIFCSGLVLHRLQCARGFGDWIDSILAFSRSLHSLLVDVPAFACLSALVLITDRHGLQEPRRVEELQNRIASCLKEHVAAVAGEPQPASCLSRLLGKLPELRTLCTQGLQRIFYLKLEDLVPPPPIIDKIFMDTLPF", "assay": "Nur77 reporter (NurRE) luciferase assay in Nur77-expressing SMCs", "format": "cell-based", "description": "Cells were electroporated using the Amaxa method(Amaxa, Germany) with nucleofector reagent for SMCs. In each transfection, 0.5−1.0×10^6 cells were used and 3.5 μg Nur77-reporter plasmid with 1.5 μg Renilla luciferase plasmid (containing the thymidine kinase promoter) to correct for cell number and transfection efficiency. The NUR77-reporter plasmid contained the Nur response element (NurRE) of the POMC-promoter in triplicate with the −34/+63 minimal promoter of POMC gene.^19 24 hours after transfection, cells were incubated with 6-MP (Sigma) for 24 hours and luciferase activity was assayed with the Dual luciferase reporter system (Promega, Madison, Wis.).\nTo investigate whether 6-MP increases Nur77 transcriptional activity in vascular cells, human SMCs were transduced with lentivirus encoding Nur77, resulting in expression in 85-90% of the infected cells and increased Nur77 mRNA levels compared to mock-infected SMCs (data not shown). […] Nur77-overexpressing SMCs were subsequently electroporated with the firefly luciferase reporter construct, containing the palindromic NurRE (Nur77 response element from the POMC-promoter) sequence (TGATATTTn6AAATGCCA) to monitor Nur77 transcriptional activity in combination with the thymidine kinase-renilla luciferase construct as a control for transfection efficiency."}, "human SMCs": {"test_system": "human SMCs", "assay": "Apoptosis of SMCs, Hoechst staining of nuclei", "format": "cell-based", "settings": "human, 24 h", "description": "Human SMCs were explanted from umbilical cord arteries. Cells were cultured in DMEM (Invitrogen Life Technology, Breda, The Netherlands) with 10% (v/v) fetal bovine serum (FBS) with penicillin and streptomycin (Invitrogen). Cells were used at passages five to seven. […] To determine cellular viability, cells were washed with PBS and subsequently incubated in medium in the presence of 0.5-mg/ml 3-(4,5-dimethylthiazol-2-yl)-2,5-diphenyltetrazolium bromide (MTT; Sigma Diagnostics, St. Louis). After two hours, medium was discarded, formazan crystals were dissolved in isopropanol and optical density was measured at 590 nm. Apoptosis was induced by incubating cells for 24 hours in medium with 0.25 μM staurosporine (Sigma). Subsequently, SMCs were fixed, stained with Hoechst dye and the relative number of apoptotic nuclei was determined."}, "[2]": {"assay": "In vitro release from drug-eluting poly(ε-caprolactone) cuffs", "format": "physicochemical", "settings": "0.5% and 1% cuffs, 4-week period", "method": "Briefly, 6-MP was dissolved at different concentrations in blended, molten drug-polymer mix and cuffs were designed to fit around the femoral artery of mice. Drug-eluting cuffs are shaped as longitudinally cut cylinders with an internal diameter of 0.5 mm, an external diameter of 1.0 mm, a length of 2.0 mm and a weight of approximately 5.0 mg. Drug-eluting cuffs were loaded with 0.5% (w/w) and 1% (w/w) 6-MP and the in vitro release profiles were determined for a 4-week period, as described before (n=5/group)."}, "[3]": {"test_system": "cuff-induced neointima formation in mouse femoral artery", "assay": "Femoral artery cuff murine model, 6-MP-eluting cuffs", "format": "in vivo", "settings": "for cuff-induced neointima formation (intimal area): 4 weeks", "excerpt": "All animal work was approved by AMC institutional regulatory authority and carried out in compliance with guidelines issued by the Dutch government. Wild-type FVB mice (Wt), transgenic mice expressing the full-length Nur77 gene (Nur77), or mice expressing a dominant-negative variant of Nur77 (ΔTA) (the latter two strains under control of the SM22α promoter, which directs the expression of transgenes specific to SMCs), in an FVB background, were used for experiments. Male mice, 10-12 weeks old, were fed a standard chow diet. At the time of surgery, mice were anaesthetized with an intraperitoneal injection of 5 mg/kg Dormicum (Roche, Basel, Switzerland), 0.5 mg/kg Dormitor (Orion, Helsinki, Finland) and 0.05 mg/kg Fentanyl (Janssen, Geel, Belgium). The femoral artery was dissected from its surroundings and loosely sheathed with a non-constrictive cuff. Either a control, empty cuff or a 6-MP eluting cuff (0.5% or 1% w/w) was used (n=6/group).\nWt and Nur77-overexpressing transgenic mice were sacrificed at 28 days after cuff placement, whereas ATA transgenic mice were sacrificed at 14 days after surgery. The thorax was opened and a mild pressure-perfusion (100 mmHg) with 4% (v/v) formaldehyde in 0.9% (w/v) NaCl was performed for 5 min by cardiac puncture. After perfusion, femoral arteries were harvested, fixed overnight in 4% (v/v) formaldehyde, dehydrated and paraffin embedded. Serial cross-sections (5 μm thick) for histological analysis were used throughout the entire length of the cuffed femoral artery. All samples were routinely stained with hematoxylin-phloxine-saffron (HPS). Weigert's elastin staining was used to visualize elastic laminae. Ten equally spaced cross-sections were used in all mice to quantify intimal lesions. Using image analysis software (Leica Qwin, Wetzlar, Germany), total cross sectional medial area was measured between the external and internal elastic lamina; total cross sectional intimal area was measured between the endothelial cell monolayer and the internal elastic lamina.\nIn vitro experiments were repeated at least twice and are presented as mean±SD and were analyzed by the Student t-test. Animal experiments are presented as mean±SEM and were analyzed using the Mann-Whitney U-test (SPSS 11.5 for Windows). P-values less than 0.05 were regarded as statistically significant."}, "[4]": {"settings": "Nur77 transgenic mice, 0.5% 6-MP cuff"}, "[5]": {"settings": "Nur77 transgenic mice, 1% 6-MP cuff"}},
  "note": "Entries after “also recorded” stand apart in the source; their conditions may differ.",
  "data": [
    {"compound": "Sc1ncnc2nc[nH]c12", "note": "[6-MP, 6-mercaptopurine]", "values": [
      {"measurement": "effect on stretch-induced DNA synthesis after TR3 knockdown", "setting": "[1]; venous SMCs transfected with TR3-siRNA", "value": "completely abolishes the effect of 6-MP; also recorded: no longer inhibits DNA synthesis"},
      {"measurement": "stretch-induced DNA synthesis", "setting": "[1]; venous SMCs, 24 h cyclic stretch, 25 μM 6-MP", "value": "completely inhibited"},
      {"measurement": "stretch-induced DNA synthesis ([3H]-thymidine incorporation)", "setting": "[1]; venous SMCs, 24 h cyclic stretch, 6-MP at various concentrations", "value": "reduced stretch-mediated proliferation in a dose-dependent manner"},
      {"measurement": "increase in Nur77 activity (luciferase)", "setting": "Nur77; 50 μM, 24 hours", "value": 10, "unit": "fold"},
      {"measurement": "Nur77 transcriptional activity", "setting": "Nur77; 24 hours in the presence of 6-MP", "value": "enhances Nur77 activity"},
      {"measurement": "apoptosis (apoptotic nuclei)", "setting": "human SMCs", "value": "3%±2%"},
      {"measurement": "in vitro release profile", "setting": "[2]", "value": "sustained and dose-dependent release"},
      {"measurement": "intima/media ratio", "setting": "[3]; [4]", "value": "0.47±0.05"},
      {"measurement": "cuff-induced neointima formation (intimal area)", "setting": "[3]; [4]", "value": "substantially reduced"},
      {"measurement": "intima/media ratio", "setting": "[3]; [5]", "value": "0.30±0.06"},
      {"measurement": "cuff-induced neointima formation (intimal area)", "setting": "[3]; [5]", "value": "significant inhibition"},
      {"measurement": "medial areas of the cuffed femoral arteries", "setting": "[3]; Wt and Nur77 transgenic mice", "value": "No changes"},
      {"measurement": "intima/media ratio", "setting": "[3]; Wt mice, 0.5% 6-MP cuff", "value": "0.75±0.05"},
      {"measurement": "cuff-induced neointima formation (intimal area)", "setting": "[3]; Wt mice, 0.5% 6-MP cuff", "value": "did not show a decrease"},
      {"measurement": "intima/media ratio", "setting": "[3]; Wt mice, 1% 6-MP cuff", "value": "0.51±0.03"},
      {"measurement": "cuff-induced neointima formation (intimal area)", "setting": "[3]; Wt mice, 1% 6-MP cuff", "value": "significant inhibition"},
      {"measurement": "neointima formation (intimal area)", "setting": "[3]; ΔTA transgenic mice, 0.5% 6-MP cuff, 2 weeks", "value": "no significant effect"},
      {"measurement": "neointima formation (intimal area)", "setting": "[3]; ΔTA transgenic mice, 1% 6-MP cuff, 2 weeks", "value": "no significant effect"},
      {"measurement": "media thickness", "setting": "[3]; ΔTA transgenic mice, 2 weeks", "value": "did not change"}
    ]}
  ]
}
